Measured values published in ChEMBL document CHEMBL4002605, “Synthesis, identification and in vitro biological evaluation of some novel quinoline incorporated 1,3-thiazinan-4-one derivatives” (Bioorg Med Chem Lett, 2017).
Converted amounts (≈) assume the structure as drawn.

Key:
Streptococcus pneumoniae = experiment: Antibacterial activity against Streptococcus pneumoniae MTCC 1936 by broth microdilution assay method; assay type: functional
Bacillus subtilis = experiment: Antibacterial activity against Bacillus subtilis MTCC 441 by broth microdilution assay method; assay type: functional
Clostridium tetani = experiment: Antibacterial activity against Clostridium tetani MTCC 449 by broth microdilution assay method; assay type: functional
Escherichia coli = experiment: Antibacterial activity against Escherichia coli MTCC 443 by broth microdilution assay method; assay type: functional
Salmonella typhi = experiment: Antibacterial activity against Salmonella typhi MTCC 98 by broth microdilution assay method; assay type: functional, Salmonella enterica subsp. enterica serovar Typhi; conditions: Salmonella enterica
Vibrio cholerae = experiment: Antibacterial activity against Vibrio cholerae MTCC 3906 by broth microdilution assay method; assay type: functional
[1] = test system: Mycobacterium tuberculosis; experiment: Antitubercular activity against Mycobacterium tuberculosis H37Rv at 6 ug/mL; assay type: functional
Plasmodium falciparum = experiment: Antimalarial activity against Plasmodium falciparum; assay type: functional

Row | Structure (SMILES) | MIC (Streptococcus pneumoniae) | MIC (Bacillus subtilis) | MIC (Clostridium tetani) | MIC (Escherichia coli) | MIC (Salmonella typhi) | MIC (Vibrio cholerae) | inhibition at 6 µg/mL [1] | IC50 (Plasmodium falciparum)
1 | O=C1CCSC(c2cccc(F)c2)N1CCCNc1ccnc2cc(Cl)ccc12 (stereo not given) | 125 µg/mL (≈ 291 µM) | 125 µg/mL (≈ 291 µM) | 250 µg/mL (≈ 581 µM) | 250 µg/mL (≈ 581 µM) | 125 µg/mL (≈ 291 µM) | 250 µg/mL (≈ 581 µM) | 52% | 1.12 µg/mL (≈ 2.6 µM)
2 | O=C(NN1C(=O)CCSC1c1ccc(O)cc1)c1cnc2c(C(F)(F)F)cccc2c1O (stereo not given) | 250 µg/mL (≈ 539 µM) | 125 µg/mL (≈ 270 µM) | 250 µg/mL (≈ 539 µM) | 250 µg/mL (≈ 539 µM) | 125 µg/mL (≈ 270 µM) | 125 µg/mL (≈ 270 µM) | 79% | 1.58 µg/mL (≈ 3.41 µM)
3 | O=C1CCSC(c2ccc(Br)cc2)N1CCCNc1ccnc2cc(Cl)ccc12 (stereo not given) | 62.5 µg/mL (≈ 127 µM) | 62.5 µg/mL (≈ 127 µM) | 100 µg/mL (≈ 204 µM) | 125 µg/mL (≈ 255 µM) | 62.5 µg/mL (≈ 127 µM) | 100 µg/mL (≈ 204 µM) | 87% | 0.056 µg/mL (≈ 0.114 µM)
4 | O=C1CCSC(c2cccc(Cl)c2)N1CCCCNc1ccnc2cc(Cl)ccc12 (stereo not given) | 250 µg/mL (≈ 543 µM) | 250 µg/mL (≈ 543 µM) | 250 µg/mL (≈ 543 µM) | 250 µg/mL (≈ 543 µM) | 125 µg/mL (≈ 271 µM) | 125 µg/mL (≈ 271 µM) | 49% | 1.93 µg/mL (≈ 4.19 µM)
5 | O=C1CCSC(c2ccccc2)N1CCCNc1ccnc2cc(Cl)ccc12 (stereo not given) | 500 µg/mL (≈ 1210 µM) | 500 µg/mL (≈ 1210 µM) | 500 µg/mL (≈ 1210 µM) | 500 µg/mL (≈ 1210 µM) | 500 µg/mL (≈ 1210 µM) | 500 µg/mL (≈ 1210 µM) | 47% | 3.5 µg/mL (≈ 8.5 µM)
6 | O=C1CCSC(c2ccc(F)cc2)N1CCCNc1ccnc2cc(Cl)ccc12 (stereo not given) | 31.2 µg/mL (≈ 72.7 µM) | 62.5 µg/mL (≈ 145 µM) | 100 µg/mL (≈ 233 µM) | 62.5 µg/mL (≈ 145 µM) | 125 µg/mL (≈ 291 µM) | 100 µg/mL (≈ 233 µM) | 78% | 0.089 µg/mL (≈ 0.207 µM)
7 | O=C1CCSC(c2ccc(F)cc2)N1CCCCNc1ccnc2cc(Cl)ccc12 (stereo not given) | 100 µg/mL (≈ 225 µM) | 100 µg/mL (≈ 225 µM) | 125 µg/mL (≈ 282 µM) | 125 µg/mL (≈ 282 µM) | 62.5 µg/mL (≈ 141 µM) | 62.5 µg/mL (≈ 141 µM) | 65% | 0.092 µg/mL (≈ 0.207 µM)
8 | COc1cccc(C2SCCC(=O)N2CCNc2ccnc3cc(Cl)ccc23)c1 (stereo not given) | 250 µg/mL (≈ 584 µM) | 62.5 µg/mL (≈ 146 µM) | 250 µg/mL (≈ 584 µM) | 250 µg/mL (≈ 584 µM) | 500 µg/mL (≈ 1170 µM) | 500 µg/mL (≈ 1170 µM) | 58% | 1.89 µg/mL (≈ 4.42 µM)
9 | Cc1ccc(C2SCCC(=O)N2CCCCNc2ccnc3cc(Cl)ccc23)cc1 (stereo not given) | 500 µg/mL (≈ 1140 µM) | 250 µg/mL (≈ 568 µM) | 250 µg/mL (≈ 568 µM) | 500 µg/mL (≈ 1140 µM) | 500 µg/mL (≈ 1140 µM) | 250 µg/mL (≈ 568 µM) | 40% | 2.33 µg/mL (≈ 5.3 µM)
10 | O=C(NN1C(=O)CCSC1c1ccc(Br)cc1)c1cnc2c(C(F)(F)F)cccc2c1O (stereo not given) | 125 µg/mL (≈ 237 µM) | 62.5 µg/mL (≈ 119 µM) | 31.2 µg/mL (≈ 59.4 µM) | 125 µg/mL (≈ 237 µM) | 31.2 µg/mL (≈ 59.4 µM) | 62.5 µg/mL (≈ 119 µM) | 98% | 0.018 µg/mL (≈ 0.0342 µM)
11 | O=C1CCSC(c2ccc(O)cc2)N1CCCCNc1ccnc2cc(Cl)ccc12 (stereo not given) | 250 µg/mL (≈ 566 µM) | 250 µg/mL (≈ 566 µM) | 500 µg/mL (≈ 1130 µM) | 125 µg/mL (≈ 283 µM) | 250 µg/mL (≈ 566 µM) | 250 µg/mL (≈ 566 µM) | 38% | 2.64 µg/mL (≈ 5.97 µM)
12 | Cc1ccc(C2SCCC(=O)N2CCCNc2ccnc3cc(Cl)ccc23)cc1 (stereo not given) | 250 µg/mL (≈ 587 µM) | 125 µg/mL (≈ 293 µM) | 500 µg/mL (≈ 1170 µM) | 250 µg/mL (≈ 587 µM) | 500 µg/mL (≈ 1170 µM) | 500 µg/mL (≈ 1170 µM) | 41% | 2.2 µg/mL (≈ 5.16 µM)
13 | O=C(NN1C(=O)CCSC1c1cccc(Cl)c1)c1cnc2c(C(F)(F)F)cccc2c1O (stereo not given) | 250 µg/mL (≈ 519 µM) | 125 µg/mL (≈ 259 µM) | 250 µg/mL (≈ 519 µM) | 125 µg/mL (≈ 259 µM) | 250 µg/mL (≈ 519 µM) | 250 µg/mL (≈ 519 µM) | 71% | 1.2 µg/mL (≈ 2.49 µM)
14 | O=C(NN1C(=O)CCSC1c1ccc(Cl)cc1)c1cnc2c(C(F)(F)F)cccc2c1O (stereo not given) | 250 µg/mL (≈ 519 µM) | 62.5 µg/mL (≈ 130 µM) | 125 µg/mL (≈ 259 µM) | 250 µg/mL (≈ 519 µM) | 250 µg/mL (≈ 519 µM) | 125 µg/mL (≈ 259 µM) | 90% | 0.067 µg/mL (≈ 0.139 µM)
15 | CC1(C)S[C@@H]2[C@H](NC(=O)[C@H](N)c3ccccc3)C(=O)N2[C@H]1C(=O)O [AMPICILLIN] | 100 µg/mL (≈ 286 µM) | 250 µg/mL (≈ 715 µM) | 250 µg/mL (≈ 715 µM) | 100 µg/mL (≈ 286 µM) | 100 µg/mL (≈ 286 µM) | 100 µg/mL (≈ 286 µM) |  | 
16 | O=C(O)c1cn(C2CC2)c2cc(N3CCNCC3)c(F)cc2c1=O [CIPROFLOXACIN] | 25 µg/mL (≈ 75.4 µM) |  |  | 25 µg/mL (≈ 75.4 µM) | 25 µg/mL (≈ 75.4 µM) | 25 µg/mL (≈ 75.4 µM) |  | 
17 | CCn1cc(C(=O)O)c(=O)c2cc(F)c(N3CCNCC3)cc21 [NORFLOXACIN] | 10 µg/mL (≈ 31.3 µM) | 100 µg/mL (≈ 313 µM) | 50 µg/mL (≈ 157 µM) | 10 µg/mL (≈ 31.3 µM) | 10 µg/mL (≈ 31.3 µM) | 10 µg/mL (≈ 31.3 µM) |  | 
18 | C=C[C@H]1CN2CC[C@H]1C[C@H]2[C@H](O)c1ccnc2ccc(OC)cc12 [QUININE] |  |  |  |  |  |  |  | 0.271 µg/mL (≈ 0.835 µM)
19 | CO[C@H]1/C=C/O[C@@]2(C)Oc3c(C)c(O)c4c(O)c(c(/C=N/N5CCN(C)CC5)c(O)c4c3C2=O)NC(=O)/C(C)=C\C=C\[C@H](C)[C@H](O)[C@@H](C)[C@@H](O)[C@@H](C)[C@H](OC(C)=O)[C@@H]1C [RIFAMPIN] |  |  |  |  |  |  | 98% | 
